Patent publication US12459938B2, “ORAI channel inhibitors” (Beth Israel Deaconess Medical Center, Inc., priority 2019, dated 2025)

Tests used:
Type in all cases: cell-based
[1] = test system: Rat mast cells (RBL-2H3 cells); test: Calcium influx assay (Fluo-4NW, thapsigargin store depletion, Ca2+ re-addition); details: control = DMSO, read-out: Fluo-4NW fluorescence (Ca2+ influx), % of control; for activity at 1 µM: 1 μM compound; for activity at 10 µM: 10 μM compound
Experimental: Rat mast cells (RBL-2H3 cells) (ATCC) were seeded in 96-well plate at 4×10^4 cells per well in DMEM-supplemented with 2% FBS and allowed to adhere overnight. Culture medium was then replaced with 50 μl of Ca^2+-free Tyrode buffer to load Ca^2+-probe Fluo-4NW (Molecular Probe, Thermo Fisher, MA, USA) per manufacturer instruction. A testing compound at indicated concentrations was supplied during the probe loading from the beginning. Cells were incubated in the presence or absence of a testing compound for 60 minutes in the Ca^2+-free medium at 37° C. During the last 5 minutes of incubation, cells were treated with 1 μM thapsigargin (Tg, Sigma Aldrich) to deplete [Ca^2+]ER, 20 mM CaCl2 in normal saline solution was supplemented back to the [Ca^2+]ER-depleted cells to have 2 mM as final concentration. Culture medium was removed 1 minute after Ca^2+ reloading, and changes in Fluo-4NW fluorescence (RFU) were recorded with the multi-mode plate reader (FilterMax F5, Molecular Devices/Thermo Fisher Scientific, MA, USA) at an excitation wavelength of 485 nm and an emission wavelength of 535 nm. The inhibitory activity of the tested compound was presented as % of control (DMSO).

[2] = test system: NFAT; test: NFAT activation assay (luciferase reporter, PMA and ionomycin); details: Homo sapiens; 10 μM compound; Jurkat cells; 15 nM PMA and 0.5 μM ionomycin; 18 hours; read-out: Activity 10 μM (% inhibition of NFAT luciferase luminescence)
Experimental: Jurkat cells (BPS Bioscience catalog No. 60621) were seeded at 40,000 cells per well into white clear-bottom 96-well microplate in 80 μl of growth medium without Geneticin. 10 μl of testing compounds (final 10 μM) were added to each well and preincubated with cells for half an hour. Then 10 μl of PMA and ionomycin mixture were added to each well to make the final concentration of 15 nM PMA and 0.5 μM ionomycin. Cells were incubated at 37° C. and 5% CO2 incubator for 18 hours. After treatment, cells were lysed and the luciferase assay was performed using ONE-Step luciferase assay system by adding 100 μl of One-Step Luciferase reagent (BPS Bioscience catalog No. 60690) per well followed by rocking at room temperature for about 30 minutes. Luminescence was measured using a luminometer (BioTek Synergym™ 2 microplate reader). The percent luminescence in the presence of each compound was calculated according to the following equation: % Luminescence=(L−Lb)/(Lt−Lb), where L=the luminescence intensity in the presence of the compound, Lb=the luminescence intensity in the absence of cells, and Lt=the luminescence intensity in the absence of the compound. The percent inhibition was calculated by: % inhibition=100−(% Luminescence).

[3] = test system: IL-2; test: Interleukine-2 (IL-2) assay (ELISA, PMA and TG stimulated); details: Human Jurkat T cells; PMA (10 nM) and TG (100 nM); 8 hours; read-out: IC50 (IL-2 levels)
Experimental: Human Jurkat T cells (ATCC) were plated in Dubelcco's Modified Eagle Medium (DMEM) with 1% FBS in a 96 well plate at a density of 1×10^6 cells/well. Cells were treated with a testing compound at different concentrations and stimulated by PMA (10 nM) and TG (100 nM). The treated cells were incubated at 8 hours. The supernatants were collected and assayed for IL-2 levels by ELISA according to the manufacturer's protocols. The IC50 of Example 2 was determined to be 3 μM.

[4] = test system: RBL rat mast cells; test: Degranulation of rat mast cells (secreted β-hexosaminidase); details: Mast cell, 0.5 h, Tg depletion, 30 minutes after replenishing Ca2+
Experimental: (§1) [Ca^2+]ER in RBL (ATCC) rat mast cells were depleted by Tg in the presence of a test compound. Then […] DMEM-2% FBS (containing 5 mM Ca^2+) was supplemented back in the presence of the corresponding concentration of MCS-01.
(§2) Thirty minutes after replenishing Ca^2+ the culture supernatant was collected for MC degranulation and cytokine release. Degranulation was measured as percent secreted β-hexosaminidase (β-Hex) according to the protocol of the assay kit (Sigma-Aldrich, MO, USA). At this time point TNF-α was also measured using ELISA kit (R&D Systems, MN, USA).

[5] = test system: TNF-α; test: TNF-α release from rat mast cells (ELISA); details: Mast cell, RBL rat mast cells, control = DMSO; for activity at 1 µM: 1 μM compound; for activity at 10 µM: 10 μM compound
Experimental: as §1, §2
The inhibitory activity of the tested compound in the TNF-α assay was presented as % of control (DMSO).

| SMILES | activity at 1 µM [1] | activity at 10 µM [1] | inhibition at 10 µM [2] | IC50 [3] | IC50 [4] | activity at 1 µM [5] | activity at 10 µM [5] |
| --- | --- | --- | --- | --- | --- | --- | --- |
| O=C(Nc1c(F)cccc1F)c1cn(CC2CC2)c2ccccc12 [Example 1, 1-(cyclopropylmethyl)-N-(2,6-difluorophenyl)-1H-indole-3-carboxamide] | 75% | 42% | 51 to 75% |  |  |  |  |
| O=C(Nc1c(F)cccc1Cl)c1cn(CC2CC2)c2ccccc12 [Example 2, N-(2-chloro-6-fluorophenyl)-1-(cyclopropylmethyl)-1H-indole-3-carboxamide] | 46% | 14% |  | 3 µM | 1.2 µM | 57% | 30% |
| O=C(Nc1c(F)cncc1F)c1cn(CC2CC2)c2ccccc12 [Example 3, 1-(cyclopropylmethyl)-N-(3,5-difluoropyridin-4-yl)-1H-indole-3-carboxamide] | 66% | 37% | 51 to 75% |  |  |  |  |
| Cc1cnccc1NC(=O)c1cn(CC2CC2)c2ccccc12 [Example 4, 1-(cyclopropylmethyl)-N-(3-methylpyridin-4-yl)-1H-indole-3-carboxamide] | 61% | 44% | 51 to 75% |  |  |  |  |
| O=C(Nc1c(F)cncc1F)c1cn(CC2CCC2)c2ccccc12 [Example 7, 1-(cyclobutylmethyl)-N-(3,5-difluoropyridin-4-yl)-1H-indole-3-carboxamide] | 85% | 80% | 51 to 75% |  |  |  |  |
| O=C(Nc1ccncc1F)c1cn(CC2CCC2)c2ccccc12 [Example 8, 1-(cyclobutylmethyl)-N-(3-fluoropyridin-4-yl)-1H-indole-3-carboxamide] | 50% | 25% | > 75% |  |  | 79% | 51% |
| Cc1cnccc1NC(=O)c1cn(CC2CCC2)c2ccccc12 [Example 9, 1-(cyclobutylmethyl)-N-(3-methylpyridin-4-yl)-1H-indole-3-carboxamide] | 81% | 65% | > 75% |  |  |  |  |
| O=C(Nc1ccncc1F)c1cn(CC2CC2)c2ccccc12 [Example 13, 1-(cyclopropylmethyl)-N-(3-fluoropyridin-4-yl)-11/-indole-3-carboxamide] | 63% | 31% | > 75% |  |  | 67% | 53% |
| Cc1c(C(=O)Nc2ccncc2F)c2ccccc2n1CC1CC1 [Example 43, 1-(cyclopropylmethyl)-N-(3-fluoropyridin-4-yl)-2-methyl-1H-indole-3-carboxamide] |  |  | > 75% |  |  |  |  |
